Marks after values point to notes of the source that are not given here.
Assays:
male Sprague-Dawley rats = assay: Effects on sleep in rats (6 hours of recording, day 1 versus vehicle day 0); format: in vivo, rat; conditions: for Lag time of appearance of NREM sleep: change versus vehicle control; for Duration of NREM sleep / Duration of sleep: total over 6 hours of recording
Procedure: For this study, four groups of male Sprague-Dawley rats are used, each group comprising from 5 to 9 rats.
Group A receives eplivanserin (oral route, hemifumarate) at a dose of 3 mg/kg p.o.
Group B receives zolpidem (oral route, hemitartrate) at a dose of 3 mg/kg p.o.
Group C receives (orally) in combination 3 mg/kg p.o. of eplivanserin hemifumarate and 3 mg/kg of zolpidem hemitartrate, the two compounds being administered with an interval of 5 minutes.
Finally, group D receives zolpidem (oral route, hemitartrate) at a dose of 10 mg/kg p.o.
The data are recorded on day 0 (control day), when the animals receive only a vehicle (distilled water and methylcellulose) and on day 1 when the animals receive the active principles.
The data are recorded for 6 hours each day, the active principles being administered 15 minutes before the start of recording.
In Table I, the results are expressed as percentages relative to the control groups receiving only the vehicle, unless otherwise indicated.
Duration of sleep: total duration of sleep during the 6 hours of recording. Duration of NREM sleep: total duration of NREM sleep during the 6 hours of recording. Lag time of appearance of NREM sleep: time measured from the start of the recording up to the moment of the first period of NREM sleep. Mean duration of the periods of NREM sleep: duration of NREM sleep/number of periods of NREM sleep during the 6 hours of recording.

[1] = cited from earlier work; for bioavailability: in vivo
[2] = Group B: zolpidem hemitartrate 3 mg/kg p.o., relative to vehicle control
[3] = Group D: zolpidem hemitartrate 10 mg/kg p.o., 6 hours of recording, relative to vehicle control
[4] = Group D: zolpidem hemitartrate 10 mg/kg p.o., relative to vehicle control

SMILES | Lag time of appearance of NREM sleep (male Sprague-Dawley rats; Group A: eplivanserin hemifumarate 3 mg/kg p.o., from start of recording to first period of NREM sleep) | bioavailability [1] [%] | Mean duration of the periods of NREM sleep (male Sprague-Dawley rats; Group B: zolpidem hemitartrate 3 mg/kg p.o., 6 hours of recording, relative to vehicle control) [%] | Lag time of appearance of NREM sleep (male Sprague-Dawley rats; Group B: zolpidem hemitartrate 3 mg/kg p.o., from start of recording to first period of NREM sleep) [min] | Duration of NREM sleep (male Sprague-Dawley rats; [2]) | Duration of sleep (male Sprague-Dawley rats; [2]) [%] | Mean duration of the periods of NREM sleep (male Sprague-Dawley rats; [3]) | Mean number of periods of NREM sleep (male Sprague-Dawley rats; [3]) | Lag time of appearance of NREM sleep (male Sprague-Dawley rats; Group D: zolpidem hemitartrate 10 mg/kg p.o.) [min] | Duration of NREM sleep (male Sprague-Dawley rats; [4]) | Duration of sleep (male Sprague-Dawley rats; [4]) [%**] | duration of action ([1]; mean dose between 5 and 10 mg in a conventional formulation)
CN(C)CCO/N=C(/C=C/c1ccc(O)cc1)c1ccccc1F [eplivanserin] | +0.6 min | 80 |  |  |  |  |  |  |  |  |  | 
Cc1ccc(-c2nc3ccc(C)cn3c2CC(=O)N(C)C)cc1 [zolpidem] |  | 70 | −15 | -6 | +4% | −2 | +31%** | +1% | -1.2 | +33%** | −20 | up to 6 hours

— patent publication US20100291204A1, “COMBINATION OF A LONG-ACTING HYPNOTIC AGENT AND A SHORT-ACTING HYPNOTIC AGENT AND THERAPEUTIC USE THEREOF” (SANOFI-AVENTIS, priority 2005, published 2010)
